Data as given in patent publication US8088819B2, “Derivatives of substituted 3-phenyl-1-(phenylthienyl)propan-1-ones and of 3-phenyl-1-(phenylfuranyl) propan-1-ones, preparation and use” (priority 2006, dated 2012).

Columns and labels:
hPPARalpha [1] = target: T1, hPPARalpha (Homo sapiens, UniProt Q07869); assay: PPAR activation: Gal4-hPPARα chimera luciferase transactivation in COS-7 cells, Method 1; type: cell-based; conditions: COS-7, 24 h; for Emax: maximum percentage response relative to the reference phenofibric acid, read-out: hPPARalpha % max
T1 construct: expressed in transfected cells; host or cells: COS-7 (monkey kidney fibroblasts)
T1 sequence (Q07869 239-466 limits assumed): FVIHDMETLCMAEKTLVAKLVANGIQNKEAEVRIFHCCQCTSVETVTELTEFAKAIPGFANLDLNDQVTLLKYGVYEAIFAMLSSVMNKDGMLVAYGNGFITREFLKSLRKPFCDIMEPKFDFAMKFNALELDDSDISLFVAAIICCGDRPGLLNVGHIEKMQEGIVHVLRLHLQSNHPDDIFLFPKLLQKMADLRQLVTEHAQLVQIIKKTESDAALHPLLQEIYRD
Procedure: (§1) The activation of the PPARs was evaluated in vitro on a line of monkey kidney fibroblasts (COS-7) by measuring the transcriptional activity of chimeras constituted of the DNA binding domain of the Gal4 transcription factor of yeast and the ligand binding domain of the various PPARs. The compounds were tested at doses between 10^−5 and […] on the chimeras Gal4-PPARα, γ or δ, and the corresponding EC50 values were determined.
(§2) The COS-7 cells were obtained from the ATCC and were cultivated in DMEM medium supplemented with 10% (v/v) of fetal calf serum, 100 U/ml of penicillin (Gibco, Paisley, UK) and 2 mM of L-glutamine (Gibco, Paisley, UK). The cells were incubated at 37° C. in a humid atmosphere containing 5% CO2.
(§3) The plasmids Gal4(RE)_TkpGL3, pGal4-hPPARα, pGal4-hPPARγ, pGal4-hPPARδ and pGal4-φ are described in the literature (Raspe E et al., 1999). The constructs pGal4-hPPARα, pGal4-hPPARγ and pGal4-hPPARδ were obtained by cloning DNA fragments amplified by PCR corresponding to the DEF domains of the human nuclear receptors PPARα, PPARγ and PPARδ in the pGal4-φ vector.
(§4) The COS-7 cells in suspension were transfected with 150 ng of DNA per well, with a pGal4-PPAR/Gal4(RE)_TkpGL3 ratio of 1/10, in the presence of 10% fetal calf serum. The cells were seeded in 96-well plates (4×10^4 cells/well) and then incubated at 37° C. for 24 hours. Activation with the test compounds is carried out for 24 h at 37° C. in serum-free medium. At the end of the experiment, the cells were lysed and the luciferase activity was determined using the Steady-Lite™ HTS (Perkin Elmer) following the supplier's recommendations.

hPPARgamma [2] = target: T2, hPPARgamma (Homo sapiens, UniProt P37231); assay: PPAR activation: Gal4-hPPARγ chimera luciferase transactivation in COS-7 cells, Method 1; type: cell-based; conditions: COS-7, 24 h; for Emax: maximum percentage response relative to the reference rosiglitazone, read-out: hPPARgamma % max
T2 construct: expressed in transfected cells; host or cells: COS-7 (monkey kidney fibroblasts)
T2 sequence (P37231 238-503 limits assumed): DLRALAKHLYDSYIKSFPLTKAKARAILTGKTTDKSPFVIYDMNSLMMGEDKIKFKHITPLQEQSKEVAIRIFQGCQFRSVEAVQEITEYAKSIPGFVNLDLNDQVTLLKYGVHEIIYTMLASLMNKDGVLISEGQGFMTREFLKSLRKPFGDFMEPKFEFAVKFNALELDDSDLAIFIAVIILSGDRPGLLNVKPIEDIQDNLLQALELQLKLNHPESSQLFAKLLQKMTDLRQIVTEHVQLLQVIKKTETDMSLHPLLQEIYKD
Procedure: as §1, §2, §3, §4

hPPARdelta [3] = target: T3, hPPARdelta (Homo sapiens, UniProt Q03181); assay: PPAR activation: Gal4-hPPARδ chimera luciferase transactivation in COS-7 cells, Method 1; type: cell-based; conditions: COS-7, 24 h; for Emax: maximum percentage response relative to the reference GW501516, read-out: hPPARdelta % max
T3 construct: expressed in transfected cells; host or cells: COS-7 (monkey kidney fibroblasts)
T3 sequence (Q03181 211-439 limits assumed): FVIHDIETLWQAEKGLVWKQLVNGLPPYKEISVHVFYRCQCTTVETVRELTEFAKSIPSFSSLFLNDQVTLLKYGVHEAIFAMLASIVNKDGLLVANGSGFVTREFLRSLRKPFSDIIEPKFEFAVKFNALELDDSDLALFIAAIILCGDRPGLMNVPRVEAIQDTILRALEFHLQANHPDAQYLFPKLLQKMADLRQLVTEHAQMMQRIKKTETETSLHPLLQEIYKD
Procedure: as §1, §2, §3, §4

[4] = test system: target genes of PPARδ in murine myocytes (C2C12); assay: Expression of target genes of PPARδ (PDK4, CPT1b, UCP2, UCP3) in murine myocytes, quantitative RT-PCR; type: cell-based; conditions: murine myocytes in vitro
Description: It is established that regulation of the expression of these genes is directly controlled by PPARδ in this cell type. The more the expression of the genes is increased, the greater the stimulating action of the compound according to the invention on metabolism in the muscle cells.
Cells from the murine cell line C2C12 (obtained from ECACC) are cultivated in DMEM medium (Gibco; 41965-039) with addition of 1% L-glutamine (Gibco; 25030), 1% of penicillin/streptomycin (VWR; BWSTL0022/100) and 10% decomplemented fetal calf serum (FCS. Gibco; 10270-106).
The cells are seeded on 24-well plates at a density of 50·10^3 cells/well. At confluence, the medium is replaced with a differentiating medium (basal medium with addition of 2% of horse serum (Gibco; 26050-088)), then incubated at 37° C. and 5% CO2 for 4 days in order to differentiate them to myocytes.
After 5 days of differentiation, the cells are put in a deprivation medium (basal medium without serum) for 6 hours. The cells are then treated with the compounds according to the invention in the deprivation medium. Compounds 2, 4, 7, 11, 39, 40, 46, 49 and 72 were in dose effect, corresponding to 1×, 10× and 100× their EC50 PPARδ. The compounds according to the invention were dissolved in dimethylsulfoxide (DMSO, Sigma; D5879). The cells were treated for 24 h at 37° C., 5% CO2. The effect of the compounds according to the invention was compared with the effect of DMSO alone.
After treatment, the total RNA is extracted from the cells using the NucleoSpine® 96 RNA kit (Macherey Nagel, Hoerdt, France) following the manufacturer's instructions.
1 μg of total RNA (quantified based on the UV spectrophotometer reading) was then reverse-transcribed to complementary DNA by reaction for 1 hour at 37° C. in a total volume of 30 μl containing buffer 1× (Invitrogen), 1.5 mM of DTT, 0.18 mM of dNTPs (Promega), 200 ng of pdN6 (Amersham), 30 U of RNase inhibitor (Promega) and 1 μl of MMLV-RT (Invitrogen).
The quantitative PCR experiments were carried out using the MyiQ Single-Color Real-Time PCR Detection System (Biorad, Marnes-la-Coquette, France) and were performed using the iQ SYBR Green Supermix kit following the supplier's recommendations, in 96-well plates, on 5 μl of diluted reverse-transcription reaction mixtures with a hybridization temperature of 60° C. Primer pairs specific to the PDK4, CPT1b, UCP2 and UCP3 genes under investigation were used:
The amount of fluorescence emitted is directly proportional to the amount of complementary DNA present at the start of the reaction and amplified during PCR. For each target investigated, a range is produced by successive dilutions of a pool constituted of a few microliters of various reverse-transcription reaction mixtures. The relative expression levels of each target are thus determined using the efficacy curves obtained with the points in the range.
The levels of expression of the genes of interest were then normalized relative to the level of expression of the reference gene 36B4 (whose specific primers are: sense primer: 5′-[…]-3′ (SEQ ID No. 19) and antisense primer: 5′-[…]-3′ (SEQ ID No. 20)). The induction factor, i.e. the ratio of the relative signal (induced by the compound according to the invention) to the mean of the relative values of the control group, was then calculated. The higher this factor, the greater the activating character of the compounds according to the invention with respect to gene expression. The final result is represented as the mean of the induction values in each experimental group.

hPPARalpha [5] = target: T1, hPPARalpha; assay: PPAR activation: Gal4-hPPARα chimera luciferase transactivation in COS-7 cells, Method 2; type: cell-based; conditions: COS-7, 24 h; for EC50: 1% Ultroser; for Emax: maximum percentage response relative to the reference phenofibric acid, read-out: hPPARalpha % max
Procedure: as §1
(§5) The principle, the cells and the plasmids used for example 5 were also employed in this example. Only the application of the transfection stage is slightly different. The details are presented below.
(§6) The adherent COS-7 cells are transfected with 40 μg of DNA per 225 cm^2 dish, with a pGal4-PPAR/Gal4(RE)_TkpGL3 ratio of 1/10, in the presence of 10% fetal calf serum. The cells are then detached and seeded in the absence of serum in 384-well plates (2×10^4 cells/well) and incubated for 4 hours at 37° C. The compounds are then diluted in a 96-well plate and transferred to the 384-well plate. Activation with the test compounds is carried out for an additional 24 h at 37° C. in the presence of 1% of Ultroser™ lipid-free synthetic serum (Biosepra). These last 2 stages are automated using a Genesis Freedom 200™ station (Tecan). At the end of the experiment, the cells are lysed and the luciferase activity is determined using the Steady-Lite™ HTS (Perkin Elmer) following the supplier's recommendations.

hPPARdelta [6] = target: T3, hPPARdelta; assay: PPAR activation: Gal4-hPPARδ chimera luciferase transactivation in COS-7 cells, Method 2; type: cell-based; conditions: COS-7, 24 h; for EC50: 1% Ultroser; for Emax: maximum percentage response relative to the reference GW501516, read-out: hPPARdelta % max
Procedure: as §1, §5, §6

hPPARgamma [7] = target: T2, hPPARgamma; assay: PPAR activation: Gal4-hPPARγ chimera luciferase transactivation in COS-7 cells, Method 2; type: cell-based; conditions: COS-7, 24 h, Method 2; for Emax: maximum percentage response relative to the reference rosiglitazone, read-out: hPPARgamma % max; for EC50: 1% Ultroser, read-out: hPPARgamma EC50
Procedure: The activation of the PPARs was evaluated in vitro on a line of monkey kidney fibroblasts (COS-7) by measuring the transcriptional activity of chimeras constituted of the DNA binding domain of the Gal4 transcription factor of yeast and the ligand binding domain of the various PPARs.
Only the application of the transfection stage is slightly different. The details are presented below.
as §6

`Cc1cc(CCC(=O)c2ccc(-c3ccc(C(F)(F)F)cc3)s2)cc(C)c1OC(C)(C)C(=O)O` [Compound 48, 2-(2,6-dimethyl-4-(3-oxo-3-(5-(4-(trifluoromethyl)phenyl)thien-2-yl)propyl)phenoxy)-2-methylpropanoic acid] showed an Emax (hPPARalpha [1]) of 49%, a melting point of 157 to 158 °C and an EC50 (hPPARgamma [2]) of 560 nM. For the same molecule, the Emax (hPPARgamma [2]) was 85%, the EC50 (hPPARdelta [3]) was 6 nM and the Emax (hPPARdelta [3]) was 86%. The “expression of genes involved in carbohydrate and lipid metabolism and in thermoregulation” value (“expression of genes involved” below) [4] was “stimulating effects”.
`CC(C)(Oc1ccc(CCC(=O)c2ccc(-c3ccc(C(F)(F)F)cc3)s2)c(F)c1F)C(=O)O` [Compound 46, 2-(2,3-difluoro-4-(3-oxo-3-(5-(4-(trifluoromethyl)phenyl)thien-2-yl)propyl)phenoxy)-2-methylpropanoic acid] gave an EC50 (hPPARalpha [1]) of 11 nM, an Emax (hPPARalpha [1]) of 58% and a melting point of 165 to 166 °C. It also gave an Emax (hPPARgamma [2]) of 30%, an EC50 (hPPARdelta [3]) of 18 nM and an Emax (hPPARdelta [3]) of 105%. The “expression of genes involved” value [4] was “stimulating effects”.
For `CC(C)(Oc1ccc(CCC(OCc2cccnc2)c2ccc(-c3ccc(C(F)(F)F)cc3)s2)c(Cl)c1Cl)C(=O)O` (stereo not drawn) [Compound 39, 2-(2,3-dichloro-4-(3-(pyridin-3-ylmethoxy)-3-(5-(4-(trifluoromethyl)phenyl)thien-2-yl)propyl)phenoxy)-2-methylpropanoic acid], the EC50 (hPPARalpha [5]) was 1010 nM, the Emax (hPPARalpha [5]) was 36% and the EC50 (hPPARdelta [6]) was 6 nM. The Emax (hPPARdelta [6]) was 90%, the Emax (hPPARgamma [7]) was 52% and the EC50 (hPPARgamma [7]) was 550 nM. For the same molecule, the melting point was 75 to 77 °C and the “expression of genes involved” value [4] was “stimulating effects”.
Work on `COC(CCc1ccc(OC(C)(C)C(=O)O)c(Cl)c1Cl)c1ccc(-c2ccc(C(F)(F)F)cc2)s1` (stereo not drawn) [Compound 40, 2-(2,3-dichloro-4-(3-methoxy-3-(5-(4-(trifluoromethyl)phenyl)-thien-2-yl)propyl)phenoxy)-2-methylpropanoic acid] yielded an EC50 (hPPARalpha [5]) of 590 nM, an Emax (hPPARalpha [5]) of 35% and an EC50 (hPPARdelta [6]) of 5 nM. The Emax (hPPARdelta [6]) was 78.3%, the Emax (hPPARgamma [7]) was 32% and the EC50 (hPPARgamma [7]) was 990 nM. The melting point was 46 to 48 °C and the “expression of genes involved” value [4] was “stimulating effects”.
`COC(CCc1ccc(OC(C)(C)C(=O)O)c(Cl)c1Cl)c1ccc(-c2ccc(C(F)(F)F)cc2)o1` (stereo not drawn) [Compound 72, 2-(2,3-dichloro-4-(3-methoxy-3-(5-(4-(trifluoromethyl)phenyl)fur-2-yl)propyl)phenoxy)-2-methylpropanoic acid] gave an EC50 (hPPARalpha [5]) of 270 nM, an Emax (hPPARalpha [5]) of 59% and an Emax (hPPARdelta [6]) of 97%. The Emax (hPPARgamma [7]) was 70%, the EC50 (hPPARgamma [7]) was 160 nM and the “expression of genes involved” value [4] was “stimulating effects”.
